Where two headings read alike, the source gives them in different places.
Tests used:
BaF3 = assay: CCK-8 assay, BaF3 cells; type: cell-based; details: Mus musculus, AV±SD, read-out: anti-proliferative activity BaF3
Procedure: (§1) Cells were seeded into 96‐well plates at a density of 1500~3000/well in complete medium overnight. Then, cells were treated with various concentrations (0.01~1000 nmol/L) of YL143 for additional 3 days. Viable cell numbers were determined by Cell Counting Kit 8 (CCK8, CK04, Dojindo Laboratories, Japan). Each assay consisted of three replicate wells and repeated at least three times. […] Each IC50 value was expressed as mean ± SD.
(§2) The anti-proliferative activities of the compounds were evaluated using CCK-8 assay. The data were means from at least four independent experiments.

A549 (EGFR^WT) cells = assay: CCK-8 cell growth assay, A549; type: cell-based; details: Homo sapiens, read-out: antiproliferative IC50 A549
Procedure: as §1

A431 (EGFR^WT) cells = assay: CCK-8 cell growth assay, A431; type: cell-based; details: Homo sapiens, read-out: antiproliferative IC50 A431
Procedure: as §1

IGF1R = IGF1R (Homo sapiens, UniProt P08069); assay: FRET-based Z'-Lyte kinase assay, IGF1R; type: biochemical; details: AV ± SD; 1.5 h incubation
Procedure: (§3) The kinase activity assay was performed and optimized according to the instructions of Z’‐LYTE™ kinase assay kits from the manufacturer (PV4879, Life, America). In our experiments, 10 concentration gradients from 0.01 nmol/L to 1.0 μmol/L were used for all the compounds.

[1] = system: H1975 (EGFR^L858R/T790M) cells; assay: CCK-8 cell growth assay, H1975; type: cell-based; details: Homo sapiens, read-out: antiproliferative IC50 H1975
Procedure: as §1

[2] = cited from earlier work; for median progression-free survival (PFS): patients with NSCLC with EGFR^L858R or EGFR^del19, improved from 4.6
BaF3-EGFR ^L858R = assay: CCK-8 assay, BaF3-EGFR L858R stable cells; type: cell-based; details: Ba/F3 EGFR-L858R, read-out: anti-proliferative activity BaF3-EGFR L858R
Procedure: as §1, §2

[3] = system: HCC827 (EGFR^del 19) cells; assay: CCK-8 cell growth assay, HCC827; type: cell-based; details: Homo sapiens, read-out: antiproliferative IC50 HCC827
Procedure: as §1

IR = IR (Homo sapiens, UniProt P06213); assay: FRET-based Z'-Lyte kinase assay, IR; type: biochemical; details: AV ± SD; 1.5 h incubation
Procedure: as §3

[4] = cited from earlier work

IGF1R, sequence (P08069 31-1367, species assumed): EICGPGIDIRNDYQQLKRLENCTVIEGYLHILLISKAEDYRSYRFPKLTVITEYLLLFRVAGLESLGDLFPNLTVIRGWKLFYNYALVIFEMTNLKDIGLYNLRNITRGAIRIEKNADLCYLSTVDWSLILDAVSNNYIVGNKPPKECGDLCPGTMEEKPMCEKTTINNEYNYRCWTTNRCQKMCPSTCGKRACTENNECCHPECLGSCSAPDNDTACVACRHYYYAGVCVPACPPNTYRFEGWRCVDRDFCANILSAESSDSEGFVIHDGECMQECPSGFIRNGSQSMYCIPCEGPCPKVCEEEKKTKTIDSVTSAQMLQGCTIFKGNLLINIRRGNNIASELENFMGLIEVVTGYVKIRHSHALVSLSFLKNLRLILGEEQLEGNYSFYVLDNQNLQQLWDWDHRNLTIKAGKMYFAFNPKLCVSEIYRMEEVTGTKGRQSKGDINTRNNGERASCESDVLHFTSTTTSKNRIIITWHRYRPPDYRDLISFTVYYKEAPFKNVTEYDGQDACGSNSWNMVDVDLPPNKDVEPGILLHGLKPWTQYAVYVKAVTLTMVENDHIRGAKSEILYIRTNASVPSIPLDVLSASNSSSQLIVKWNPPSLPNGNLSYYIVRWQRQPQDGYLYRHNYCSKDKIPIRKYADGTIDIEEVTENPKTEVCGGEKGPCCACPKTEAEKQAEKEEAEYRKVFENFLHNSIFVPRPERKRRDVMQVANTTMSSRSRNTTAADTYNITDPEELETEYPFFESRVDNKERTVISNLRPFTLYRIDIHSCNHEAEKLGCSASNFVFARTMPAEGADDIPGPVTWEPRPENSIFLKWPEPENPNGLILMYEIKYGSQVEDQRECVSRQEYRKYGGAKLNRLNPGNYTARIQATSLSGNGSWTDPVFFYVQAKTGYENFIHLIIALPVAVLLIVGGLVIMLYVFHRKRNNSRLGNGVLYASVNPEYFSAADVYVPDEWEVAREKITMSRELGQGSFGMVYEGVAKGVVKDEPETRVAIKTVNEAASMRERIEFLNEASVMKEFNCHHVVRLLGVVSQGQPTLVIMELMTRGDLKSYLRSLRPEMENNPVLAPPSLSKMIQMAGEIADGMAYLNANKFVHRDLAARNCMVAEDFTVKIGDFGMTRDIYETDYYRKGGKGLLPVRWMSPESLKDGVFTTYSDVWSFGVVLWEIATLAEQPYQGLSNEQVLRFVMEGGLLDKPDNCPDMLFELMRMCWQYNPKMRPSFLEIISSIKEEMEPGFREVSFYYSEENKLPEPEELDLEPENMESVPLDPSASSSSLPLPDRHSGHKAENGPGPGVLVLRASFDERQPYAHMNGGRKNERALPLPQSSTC
IR, sequence (P06213 28-1382): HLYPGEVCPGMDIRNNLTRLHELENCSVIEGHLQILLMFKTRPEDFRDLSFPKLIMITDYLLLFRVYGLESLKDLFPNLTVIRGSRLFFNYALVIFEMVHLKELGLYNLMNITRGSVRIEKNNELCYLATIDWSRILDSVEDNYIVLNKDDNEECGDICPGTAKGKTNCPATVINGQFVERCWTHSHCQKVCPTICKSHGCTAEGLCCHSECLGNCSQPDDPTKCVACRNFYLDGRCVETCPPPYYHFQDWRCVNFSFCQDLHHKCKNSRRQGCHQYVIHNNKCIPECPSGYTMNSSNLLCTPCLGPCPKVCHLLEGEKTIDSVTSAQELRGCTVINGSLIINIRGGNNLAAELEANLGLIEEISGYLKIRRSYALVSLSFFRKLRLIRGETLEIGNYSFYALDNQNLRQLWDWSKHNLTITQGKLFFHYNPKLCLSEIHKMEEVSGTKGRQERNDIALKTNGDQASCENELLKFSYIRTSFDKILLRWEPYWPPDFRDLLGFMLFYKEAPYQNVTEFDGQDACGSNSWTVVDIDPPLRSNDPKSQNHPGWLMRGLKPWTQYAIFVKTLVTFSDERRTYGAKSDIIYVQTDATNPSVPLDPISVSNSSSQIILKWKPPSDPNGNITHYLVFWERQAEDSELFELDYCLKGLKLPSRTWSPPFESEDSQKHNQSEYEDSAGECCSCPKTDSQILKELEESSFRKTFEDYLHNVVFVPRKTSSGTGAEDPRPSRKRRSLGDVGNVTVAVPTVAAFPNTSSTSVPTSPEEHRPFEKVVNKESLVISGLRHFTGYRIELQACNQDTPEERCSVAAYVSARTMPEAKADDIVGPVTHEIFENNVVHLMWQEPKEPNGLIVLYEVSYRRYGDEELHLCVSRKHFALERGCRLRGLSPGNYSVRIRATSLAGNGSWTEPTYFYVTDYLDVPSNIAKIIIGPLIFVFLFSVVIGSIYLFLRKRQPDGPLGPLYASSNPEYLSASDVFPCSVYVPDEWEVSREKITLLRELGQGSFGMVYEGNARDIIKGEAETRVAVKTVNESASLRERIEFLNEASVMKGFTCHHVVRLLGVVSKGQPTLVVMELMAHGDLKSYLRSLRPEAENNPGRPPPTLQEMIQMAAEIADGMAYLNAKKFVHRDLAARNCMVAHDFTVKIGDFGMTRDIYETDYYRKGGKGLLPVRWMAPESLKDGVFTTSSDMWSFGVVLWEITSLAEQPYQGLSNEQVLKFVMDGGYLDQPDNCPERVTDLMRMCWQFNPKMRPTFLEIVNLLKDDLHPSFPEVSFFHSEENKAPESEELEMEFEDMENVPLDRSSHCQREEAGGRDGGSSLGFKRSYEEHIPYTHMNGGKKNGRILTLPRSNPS

Structure (SMILES): C=CC(=O)Nc1cc(Nc2nccc(-c3cn(C)c4ccccc34)n2)c(OC)cc1N(C)CCN(C)C [AZD9291, Osimertinib]
- IC50 (BaF3): 6170 ± 2980 nM
- IC50 (A549 (EGFR^WT) cells; A549, 72 h): > 1000 nM
- IC50 (IGF1R): 277 nM
- IC50 ([1]; NCI-H1975, 72 h): 40.3 ± 16.6 nM
- PFS (progression-free survival) ([2]; improved from 10.2): 18.9 months
- IC50 (BaF3-EGFR ^L858R): 24 ± 25 nM
- IC50 ([3]; HCC827, 72 h): 3.9 ± 3.5 nM
- IC50 (IR): 235 nM

Structure (SMILES): C=CC(=O)Nc1cccc(Nc2nc(Nc3ccc(N4CCN(C(C)=O)CC4)cc3OC)ncc2C(F)(F)F)c1 [CO1686, Rociletinib]
- IC50 (BaF3): 2340 ± 1660 nM
- IC50 (A549 (EGFR^WT) cells; A549, CCK-8, 72 h): > 1000 nM
- IC50 (A431 (EGFR^WT) cells; A-431, CCK-8, 72 h): > 1000 nM
- IC50 (IGF1R): 47.5 ± 8.4 nM
- IC50 ([1]; NCI-H1975, CCK-8, 72 h, AV ± SD): 41.8 ± 25.1 nM
- hyperglycemia ([4]; clinical investigation): about 40 % patients
- hyperglycemia ([4]; patients, clinical study): 47%
- IC50 (BaF3-EGFR ^L858R; CCK-8, AV±SD): 69 ± 48 nM
- IC50 ([3]; HCC827, CCK-8, 72 h, AV ± SD): 67.2 ± 19.5 nM
- IC50 (IR): 12.8 ± 0.8 nM

Structure (SMILES): COc1cc2ncnc(Nc3ccc(F)c(Cl)c3)c2cc1OCCCN1CCOCC1 [Gefitinib]
- median progression-free survival (PFS) [2]: 13.1 months

Structure (SMILES): C#Cc1cccc(Nc2ncnc3cc(OCCOC)c(OCCOC)cc23)c1 [erlotinib]
- median progression-free survival (PFS) [2]: 13.1 months
